Assay results as given in patent US20130136691A1, “GASTRIN […] PEPTIDE COMPOUNDS” (priority 2008, published 2013).

How the values were obtained:
[1] = system: GRP receptor binding in T47D human breast cancer cells; assay: Effect of drug treatment on GRP receptor binding (177Lu-AMBA) and proliferation in T-47D cells; format: cell-based; conditions: T-47D, relative to untreated control
Source text: T-47D breast cancer cells (human metastatic mammary gland ductal adenocarcinoma isolated from pleural effusion, ER+, PR+) were obtained from the American Type Culture Collection.

[2] = system: GRP receptor binding in ZR-75-1 human breast cancer cells; assay: 4-hydroxytamoxifen effect on 177Lu-AMBA binding and proliferation in ZR-75-1 cells (2 to 12 days); format: cell-based; conditions: for % Change in Proliferation / % change in 177Lu-AMBA Uptake: ZR-75-1 cells
Procedure: Method: ZR-75-1 breast cancer cell line (human ductal carcinoma with estrogen receptor) was obtained from the American Type Culture Collection (ATCC).
ZR-75-1 cells were plated on Day 0 (40k/well 96-well PE Scintiplate). […] To determine the cell numbers and the proliferation, 100 uL of 10% CCK-F solution in DPBS (Molecular technologies) was added to the same plate, incubated for 30 min at 37° C. and the relative fluorescence (RFU) measured at 535 nm. Based on the cell numbers and the ^177Lu-binding, the Bmax (fmoles bound/million cells) was calculated.
ZR-75-1 breast cancer cell lines were cultured as described above.
(§1) The ZR-75-1 cells were seeded at 15K per well onto two 96-well scintiplates on the same day as 2 days study.

[3] = system: GRP receptor binding in PC-3 prostate cancer cells; assay: Effect of drug treatment on GRP receptor binding (177Lu-AMBA) and proliferation in PC-3 cells; conditions: PC-3
Procedure: (§2) RPMI 1640 supplemented with 20 mM HEPES, 0.1% BSA (w/v), 0.5 mM PMSF (AEBSF), bacitracin (50 mg/500 ml), pH 7.4.
(§3) Treatment: BT-474 cells were plated on Day 0 (see above); approximately 24-48 h after plating, treatment Days 1 and 2 (DT1, DT2), the medium was removed and replaced with fresh growth medium (control), or growth medium with the addition of lapatinib (0.1-1.0 μM). […] Incubations were stopped by the addition of 200 μL of ice-cold binding buffer. Plates were washed three more times with binding buffer, 140 μL of scintillation fluid was added to each well, the plates were sealed and analyzed on a Microp plate reader (Microbeta Trilux, Perkin-Elmer).
(§4) Treatment: BT-474 cells were plated on Day 0 and treated on Days 1 and 2 (DT1, DT2).

[4] = system: ZR-75-1 human breast cancer cells; assay: Glucose uptake (2-NBDG) in ZR-75-1 cells after 4-hydroxytamoxifen; format: cell-based; conditions: for % Change in 2-NBDG: ZR-75-1 cells
Procedure: For the glucose uptake study, a fluorescently labeled2-deoxyglucose derivative (2-NBDG) was used. […] The cell numbers were determined with CCK-F treatment as described above.
as §1

[5] = system: GRP receptor binding in BT-474 human breast cancer cells; assay: Effect of drug treatment on GRP receptor binding (177Lu-AMBA) and proliferation in BT-474 cells; conditions: BT-474; relative to untreated control; drug 0.1-1.0 μM (4-OH Tamoxifen 0.001-0.1 μM)
Procedure: Cells for binding experiments were plated on Day 0 at 5.6×10^4 cells/cm^2 in 96-well white/clear bottom microtiter plates (Falcon Optilux-I), or 96 well black/clear collagen I cellware plates (Beckton Dickinson Biocoat).
as §2, §3, §4

[6] = system: BT-474 tumor-bearing nude mice; conditions: 1 hr; + Tamoxifen/+ ES, day 14, n = 3; control 2.18 ± 0.63
Procedure: Female nude mice ([Ncr]-Foxn1) received hormone supplementation by administration of 17β-estradiol via 60 day time released pellets implanted s.c. (0.72 mg/60 Day release; 0.6 mg/kg; Innovative Research of America, Sarasota, Fla.). Four to seven days after beginning hormone treatment, the mice were xenografted with ten million BT-474 cells in Matrigel (1:1 with PBS) s.c. to the flank. The 1713 estradiol is required for tumor cell growth in this model.
Control mice received vehicle-only time release pellets (in addition to hormone support).

[7] = system: human PC-3 nude mouse model; format: in vivo; conditions: i.v.
Procedure: 10-50 μCi of the HPLC purified compounds were administered to each mouse by i.v. tail vein injection, n=4 per group. At 1 h, 1 and 7 days post injection, the mice were terminated and the organs and tissues were harvested. Radioactivity was assayed in a gamma counter. The data was expressed as percentage of the total administered radioactivity (% ID) for the urine combined with the bladder, as well as for the blood pool; and percentage of the total administered radioactivity per gram (% ID/g) for all the other tested organs.

[8] = system: GRP receptor binding in PC-3 prostate cancer cells; assay: Single plate assay: dasatinib effect on 177Lu-AMBA binding (Bmax) and proliferation (CCK-F) in PC-3 cells; format: cell-based; conditions: Homo sapiens, 100 nM Dasatinib, read-out: inhibition of growth (cell proliferation)
Procedure: The cells were plated on Day 0 (7.5k/well 96-well PE Scintiplate). […] To determine the cell numbers and the proliferation, 100 uL of 10% CCK-F solution in DPBS (Molecular technologies) was added to the same plate, incubated for 30 min at 37° C. and the relative fluorescence (RFU) measured at 535 nm. Base on the cell numbers and the ^177Lu-binding, the Bmax (fmoles bound/million cells) was calculated, and the results compared with the control.

[9] = target: T1, human GRP-R (Homo sapiens, UniProt P30550); assay: Competition assay with 125I-BBN for GRP-R in PC3 cells (IC50); format: binding; conditions: competition with 125I-BBN
T1 construct: host or cells: PC3 / PC-3 human prostate cancer cells (intact, plated)
T1 sequence (P30550 whole entry): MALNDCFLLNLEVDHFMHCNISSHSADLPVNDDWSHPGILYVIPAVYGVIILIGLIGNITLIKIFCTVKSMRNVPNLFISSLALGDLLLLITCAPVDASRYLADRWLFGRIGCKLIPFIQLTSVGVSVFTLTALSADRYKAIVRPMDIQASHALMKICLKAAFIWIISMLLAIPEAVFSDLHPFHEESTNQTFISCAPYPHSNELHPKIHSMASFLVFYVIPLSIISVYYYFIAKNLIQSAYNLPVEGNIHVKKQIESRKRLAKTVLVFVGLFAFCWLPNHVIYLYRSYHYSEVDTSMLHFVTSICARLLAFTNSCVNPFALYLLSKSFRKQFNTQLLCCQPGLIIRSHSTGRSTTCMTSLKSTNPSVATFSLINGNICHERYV

[10] = breast cancer (30% have HER2/neu, 30% treated respond); cited from earlier work
[11] = drug 0.1-1.0 μM (4-OH Tamoxifen 0.001-0.1 μM)
[12] = ZR-75-1, 1-100 nM, treatment on days 2 and 3

Compound: CC/C(=C(\c1ccc(O)cc1)c1ccc(OCCN(C)C)cc1)c1ccccc1 [4-OH Tamoxifen]
- decrease in 177Lu-AMBA binding (GRP receptor specific signal per cell) [1, 11]: up to 35%
- inhibition of proliferation, long-term treatment ([2]; ZR-75-1, 100 nM everyday, by 12 day): 28%
- 177Lu-AMBA uptake, long-term treatment, in words ([2]; ZR-75-1, 100 nM, 2-12 days): significant reduction
- cell proliferation, in words [2, 12]: little change
- % Change in Proliferation ([2]; 100 nM, 5 days of treatment): −11.3 (±8.3) %
- % change in 177Lu-AMBA Uptake ([2]; 100 nM, 5 days of treatment): −77.4 (+1.6) %
- % Change in Proliferation ([2]; 100 nM, 12 days of treatment): −28.0 (±14.1) %
- % change in 177Lu-AMBA Uptake ([2]; 100 nM, 12 days of treatment): −72.3 (±14.6) %
- % Change in Proliferation ([2]; 2 days of treatment): −7.2 (±3.8%
- % change in 177Lu-AMBA Uptake ([2]; 2 days of treatment): −65.9 (±9.7) %
- GRP receptor specific signal per cell (177Lu-AMBA binding) versus untreated controls, in words [3, 11]: no change
- 2-NBDG uptake, long-term treatment, in words ([4]; ZR-75-1, 100 nM, 2-12 days): smaller changes
- decrease in glycolysis (2-NBDG uptake) [4, 12]: ~20%
- % Change in 2-NBDG ([4]; 100 nM, 5 days of treatment): −47.5%
- % Change in 2-NBDG ([4]; 100 nM, 12 days of treatment): 14.5%
- decrease in 177Lu-AMBA binding (GRP receptor specific signal per cell) [5]: up to 73%

Compound: CC/C(=C(\c1ccccc1)c1ccc(OCCN(C)C)cc1)c1ccccc1 [Tamoxifen]
- 177Lu-AMBA in Tumor (% ID/g) [6]: 0.70 ± 0.39 % ID/g

Compound: CC1(N(CC(=O)O)CC(=O)O)CN(CC(=O)O)[C@@H]2CCCC[C@H]2N(CC(=O)O)C1 [XX100]
- Blood 7 d % ID (*72 h timepoint) ([7]; 177Lu complex, 72 h timepoint): 0.00 ± 0.00 % ID
- Tumor 7 d % ID/g (*72 h timepoint) ([7]; 177Lu complex, 72 h timepoint): 0.01 ± 0.00 % ID/g
- distribution of radioactivity (in words) ([7]; Lu-177 complexes, 1 h, 1 and 7 days): rapidly cleared from the body with little residual localization in any organs or tissue

Compound: Cc1nc(Nc2ncc(C(=O)Nc3c(C)cccc3Cl)s2)cc(N2CCN(CCO)CC2)n1 [dasatinib]
- increase in 177Lu-AMBA binding (GRP receptor specific signal per cell) ([1]; drug 0.1-1.0 μM (gefitinib 0.1-10 μM)): up to 500%
- inhibition at 0.1 µM [8]: ≤ 33%
- increase in 177Lu-AMBA binding (GRP receptor specific signal per cell) ([3]; relative to untreated control, drug 0.1-1.0 μM): up to 250%

Compound: DO3A-Gly-Abz-4-Gln-Trp-Ala-Val-Gly-His-Phe-Leu-NH2 [Compound L300]
- competition for GRP-R in PC3 cells (in words) [9]: high activity at the GRP-R

Compound: Herceptin
- overall response [10]: 9%

Compound: N-[(3β,5β,12α)-3-[[[4,7,10-Tris(carboxymethyl)-1,4,7,10-tetraazacyclododec-1-yl]acetyl]amino]-glycyl-4-aminobenzoyl-L-glutaminyl-L-tryptophyl-L-alanyl-L-valyl-glycyl-L-histidyl-L-phenylalanyl-L-methioninamide [Compound L228]
- competition for GRP-R in PC3 cells (in words) [9]: maintains GRP-R activity

Compound: N-[(3β,5β,12α)-3-[[[4,7,10-Tris(carboxymethyl)-1,4,7,10-tetraazacyclododec-1-yl]acetyl]amino]-glycyl-4-aminobenzoyl-L-glutaminyl-L-tryptophyl-L-alanyl-glycyl-L-histidyl-L-phenylalanyl-L-leucinamide [Compound L224]
- competition for GRP-R in PC3 cells (in words) [9]: complete loss of binding

Compound: N-[(3β,5β,12α)-3-[[[4,7,10-Tris(carboxymethyl)-1,4,7,10-tetraazacyclododec-1-yl]acetyl]amino]-glycyl-4-aminobenzoyl-L-leucyl-L-tryptophyl-L-alanyl-L-valinyl-glycyl-L-serinyl-L-phenylalanyl-L-methioninamide [Compound L225]
- competition for GRP-R in PC3 cells (in words) [9]: reduces competition at the GRP-R
